These results are taken from PubChem BioAssay (NCI).

Common to all, as to assay: NCI anticancer screen, dose series, 48 h
Assay [1] concerns KM12 colon.
In assay [2] the test system is SK-OV-3 ovarian.
Assay [3] concerns SNB-75 CNS.
Assay [4] concerns U251 CNS.
Assay [5] concerns CAKI-1 renal.
The subject of assay [6] is OVCAR-3 ovarian.
Assay [7] deals with BT-549 breast.
Assay [8] deals with DU-145 prostate.
The subject of assay [9] is MDA-MB-231 breast.
The subject of assay [10] is T-47D breast.

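These data come from cells grown in 96-well plates and exposed to compound for 48 hours at five concentrations. Here, GI50 denotes the concentration required for 50% inhibition of growth. TGI denotes the concentration required for complete inhibition of growth.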

On to `COc1ccc(OC(=O)CC2Cc3cc(OC)c(OC)c(OC)c3-c3ccc(SC)c(=O)cc32)cc1` (centres undefined), for which the TGI in assay [1] is 19.6 µM; in assay [2] it was 61.4 µM; in [3], greater than 100 µM; in assay [4], greater than 100 µM.
Turning to `CCCC(S(=O)(=O)c1ccccc1)S(=O)(=O)c1ccccc1`, the TGI in [5], in assay [1], in [6], in assay [2], in [3] and in assay [4] was greater than 100 µM in each case.
With `ClC1=C(Cl)C(Cl)(Cl)c2c3c(c4c(c21)C(Cl)(Cl)C(Cl)=C4Cl)C(Cl)(Cl)C(Cl)=C3Cl`, the TGI in assay [1], in assay [6], in [2] and in [4] was greater than 100 µM in each case.
Consider `Cc1cccc(NC(=O)/C(=N\N)C(c2cnc3ccc([N+](=O)[O-])cc3n2)[N+](=O)[O-])c1C` (centres undefined), for which the TGI in assay [5], in assay [1], in assay [6], in assay [2] and in assay [3] was greater than 100 µM in each case.
Take `O=C1C=C(O)C(=Cc2c(O)cc(O)cc2O)C(O)=C1`: the TGI in assay [5], in [1], in [6], in [2], in assay [3] and in [4] was greater than 100 µM in each case.
As for `COc1cc(C2(C)SCCCS2)cc(OC)c1OC`, the TGI in assay [5], in assay [1], in assay [6], in assay [2], in assay [3] and in assay [4] was greater than 100 µM each time.
Regarding `COc1cc(C(=O)c2cc(C)c3[nH]c4ccc(O)cc4c3c2C)cc(OC)c1OC`, the GI50 in assay [7] was less than 16.4 nM; in assay [5], less than 10 nM; in [8], 35.1 nM; in [1], less than 12.7 nM; in assay [9], 35.5 nM; in assay [6], less than 10 nM. Moreover, the figures for the GI50 in assay [2], in assay [3] and in [4] were 267 nM, less than 10 nM and 22.6 nM, respectively. For the same compound, the TGI is 1260 nM in [7]; greater than 47.6 µM in [5]; greater than 26.5 µM in [8]; 23.8 µM in assay [1]; 2.17 µM in assay [6]; 98.6 µM in [2]. In addition, the TGI was 8.71 µM in assay [3] and greater than 100 µM in [4].
For the compound `O=C(O)c1ccccc1NC(=S)c1ccccc1`, the TGI in assay [7] was greater than 100000 nM; in assay [5], greater than 100 µM; in assay [8] it was greater than 100 µM; in assay [1], greater than 100 µM; in assay [9], greater than 100 µM; in [6], greater than 100 µM. Further, the TGI in [2], in [10] and in assay [4] was greater than 100 µM each time.
For the compound `c1cc(-c2cn3c(n2)SCC3)ccn1`, the TGI in assay [5], in assay [1], in assay [6], in assay [2], in assay [3] and in assay [4] was greater than 100 µM throughout.
For `CC(=O)/C(=C\c1ccccc1O)C(=O)Nc1ccccc1C`, the TGI in assay [5] is 63.8 µM; in assay [1], 41.5 µM; in assay [6] it was 72 µM; in assay [2], greater than 100 µM; in assay [4] it was 24.7 µM.
Regarding `Cc1ccccc1-n1c(N)c(-c2nc3ccccc3[nH]2)sc1=S`, the TGI in assay [5] worked out at 71.4 µM; in assay [1] it was 39.9 µM; in [6] it was 41.1 µM; in [2], 72.6 µM; in assay [3] it was 56.6 µM.
Take `CC1=C(C(=O)Nc2ccc(Cl)c(Cl)c2)C(c2ccc([N+](=O)[O-])cc2)C(C(=O)Nc2ccc(Cl)c(Cl)c2)=C(C)N1`: the TGI in [5] came to 16 µM; in [1], 3.63 µM; in [6], 4.56 µM; in assay [2], 24.8 µM; in assay [3], 20.5 µM; in assay [4], 11.5 µM.
For `O=C1OC(=O)c2c1c(-c1ccccc1)nc1ccccc21`, the TGI in assay [5], in [1], in assay [6], in [2], in assay [3] and in [4] was greater than 100 µM in each case.
For `c1ccc2c(c1)CCc1c-2n[nH]c1-c1[nH]nc2c1CCc1ccccc1-2`, the TGI in assay [5], in assay [1], in [6], in assay [2], in [3] and in assay [4] was greater than 100 µM in each case.
Take `O=Cc1ccc2c(c1I)OCO2`: the TGI in assay [5], in [1], in [6], in [2], in [3] and in [4] was greater than 100 µM each time.
With `N#CCN1C(=O)c2cc([N+](=O)[O-])cc3cc([N+](=O)[O-])cc(c23)C1=O`, the TGI is 96.6 µM in [5]; 28 µM in assay [1]; 27.1 µM in assay [6]; greater than 100 µM in assay [2]; 84.8 µM in assay [3]; greater than 55.6 µM in assay [4].
Consider `O=C1c2ccccc2N2OC3(N4CCCC4)CCCCC3C12c1ccccc1` (centres undefined), for which the TGI in assay [2], in [3] and in assay [4] was greater than 100 µM each time.
Consider `CCOC(=O)/C(I)=C/c1cc(OC)c(OC)c(OC)c1`, for which the TGI in [5] was 16.3 µM; in assay [1], 19.2 µM; in assay [6], 14.1 µM; in assay [2], greater than 100 µM; in assay [3] it was greater than 100 µM; in assay [4], 18.3 µM.
`COC(=O)C(C(=O)C(=O)Nc1ccc([N+](=O)[O-])cc1)c1nc2ccc([N+](=O)[O-])cc2[nH]c1=O` (centres undefined): the TGI in assay [5], in assay [1], in assay [6], in assay [2], in [3] and in assay [4] was greater than 100 µM each time.
As for `COc1ccc(-c2[nH]c3ccccc3c2CCNS(=O)(=O)c2ccc(C)cc2)cc1`, the TGI in [5], in assay [1], in [6], in [2], in assay [3] and in [4] was greater than 10 µM each time.
